Some results are limits rather than exact numbers.

From patent publication US20180179177A1, “N-ACYLIMINO HETEROCYCLIC COMPOUNDS FOR CONTROLLING INVERTEBRATE PESTS” (BASF SE, priority 2014, published 2018) come the findings set out here.

What all share (assay type): in vivo
The test system of assay [1] is Cowpea aphid (Aphis craccivora). As to the kind of experiment: Cowpea aphid test, sprayed potted cowpea plants. The note with it: after 72 hours, read-out: mortality in comparison with untreated controls. How it is done: B.6 Cowpea Aphid (Aphis craccivora)
(§1) The active compound is dissolved at the desired concentration in a mixture of 1:1 (vol:vol) distilled water:acetone. Surfactant (Alkamuls® EL 620) is added at a rate of 0.1% (vol/vol). The test solution is prepared at the day of use.
Potted cowpea plants are colonized with approximately 50-100 aphids of various stages by manually transferring a leaf tissue cut from infested plant 24 hours before application. Plants are sprayed after the pest population has been recorded. Treated plants are maintained on light carts at about 28° C. Percent mortality is assessed after 72 hours.

The test system of assay [2] is vetch aphid (Megoura viciae). As to the kind of experiment: Vetch aphid control, contact or systemic, broad bean leaf disks. Conditions: foliar, 120 h, aphid mortality after 5 days, read-out: mortality in comparison with untreated controls. How it is done: B.3 Vetch Aphid (Megoura viciae)
For evaluating control of vetch aphid (Megoura viciae) through contact or systemic means the test unit consisted of 24-well-microtiter plates containing broad bean leaf disks.
The compounds were formulated using a solution containing 75% v/v water and 25% v/v DMSO. Different concentrations of formulated compounds were sprayed onto the leaf disks at 2.5 μl, using a custom built micro atomizer, at two replications.
After application, the leaf disks were air-dried and 5-8 adult aphids were placed on the leaf disks inside the microtiter plate wells. The aphids were then allowed to suck on the treated leaf disks and were incubated at about 23±10C and about 50±5% relative humidity for 5 days. Aphid mortality and fecundity was then visually assessed.

The test system of assay [3] is Mediterranean fruitfly (Ceratitis capitata). Kind of assay: Mediterranean fruitfly control, insect diet in microtiter plates. The note with it: 120 h, egg and larval mortality after 5 days, read-out: mortality in comparison with untreated controls. How it is done: B.2 Mediterranean Fruitfly (Ceratitis capitata)
For evaluating control of Mediterranean fruitfly (Ceratitis capitata) the test unit consisted of microtiter plates containing an insect diet and 50-80 C. capitata eggs. The compounds were formulated using a solution containing 75% v/v water and 25% v/v DMSO. Different concentrations of formulated compounds were sprayed onto the insect diet at 5 μl, using a custom built micro atomizer, at two replications.
After application, microtiter plates were incubated at about 28±1° C. and about 80±5% relative humidity for 5 days. Egg and larval mortality was then visually assessed.

The test system of assay [4] is green peach aphid (Myzus persicae). As to the kind of experiment: Green peach aphid control, systemic, artificial diet under membrane. The note with it: 72 h, aphid mortality after 3 days, read-out: mortality in comparison with untreated controls. An excerpt:
B.4 Green Peach Aphid (Myzus persicae)
For evaluating control of green peach aphid (Myzuspersicae) through systemic means, the test unit consists of 96-well-microtiter plates containing liquid artificial diet under an artificial membrane.
The compounds are formulated using a solution containing 75% v/v water and 25% v/v DMSO. Different concentrations of formulated compounds are pipetted into the aphid diet, using a custom built pipetter, at two replications.
After application, 5-8 adult aphids are placed on the artificial membrane inside the microtiter plate wells. The aphids are then allowed to suck on the treated aphid diet and incubated at about 23±10C and about 50±5% relative humidity for 3 days. Aphid mortality and fecundity is then visually assessed.

The subject of assay [5] is Green soldier stink bug (Nezara viridula). Kind of assay: Green soldier stink bug test, sprayed soybean pods. The note with it: 120 h, after 5 days, 3rd instar, read-out: mortality in comparison with untreated controls. The procedure:
B.8 Green Soldier Stink Bug (Nezara viridula)
The active compound is dissolved at the desired concentration in a mixture of 1:1 (vol:vol) distilled water:aceteone. Surfactant (Kinetic HV) is added at a rate of 0.01% (vol/vol). The test solution is prepared at the day of use.
Soybean pods were placed in microwavable plastic cups lined with moist filter paper and inoculated with ten 3rd instar N. viridula. Using a hand atomizer, approximately 2 ml solution is sprayed into each cup. Treated cups were kept at about 28-29° C. and relative humidity of about 50-60%. Percent mortality was recorded after 5 days.

For assay [6], the system named is Orchid thrips (Dichromothrips corbetti). Kind of assay: Orchid thrips floral-immersion test. Conditions: 72 hours after treatment, read-out: mortality in comparison with untreated controls. How it is done: B.5 Orchid Thrips (Dichromothrips Corbetti)
Dichromothrips corbetti adults used for bioassay are obtained from a colony maintained continuously under laboratory conditions. For testing purposes, the test compound is diluted in a 1:1 mixture of acetone:water (vol:vol), plus 0.01% vol/vol Alkamuls® EL 620 surfactant.
Thrips potency of each compound is evaluated by using a floral-immersion technique. Plastic petri dishes are used as test arenas. All petals of individual, intact orchid flowers are dipped into treatment solution and allowed to dry. Treated flowers are placed into individual petri dishes along with about 20 adult thrips. The petri dishes are then covered with lids. All test arenas are held under continuous light and a temperature of about 28° C. for duration of the assay. After 3 days, the numbers of live thrips are counted on each flower, and along inner walls of each petri dish. The percent mortality is recorded 72 hours after treatment.

Assay [7] deals with boll weevil (Anthonomus grandis). As to the kind of experiment: Boll weevil control, insect diet in 96-well microtiter plates. Conditions: 120 h, egg and larval mortality after 5 days, read-out: mortality in comparison with untreated controls. How it is done: B.1 Boll Weevil (Anthonomus grandis)
For evaluating control of boll weevil (Anthonomus grandis) the test unit consisted of 96-well-microtiter plates containing an insect diet and 5-10 A. grandis eggs.
The compounds were formulated using a solution containing 75% v/v water and 25% v/v DMSO. Different concentrations of formulated compounds were sprayed onto the insect diet at 5 μl, using a custom built micro atomizer, at two replications.
After application, microtiter plates were incubated at about 25±10C and about 75±5% relative humidity for 5 days. Egg and larval mortality was then visually assessed.

Assay [8] has as its system Southern armyworm (Spodoptera eridania). Kind of assay: Southern armyworm test, sprayed lima bean plants. Conditions: 96 h, 4 days after treatment, larvae, read-out: mortality in comparison with untreated controls. How it is done:
B.13 Southern Armyworm (Spodoptera eridania)
The active compounds were formulated in cyclohexanone as a 10,000 ppm solution supplied in tubes. The tubes were inserted into an automated electrostatic sprayer equipped with an atomizing nozzle and they served as stock solutions for which lower dilutions were made in 50% acetone:50% water (v/v). A nonionic surfactant (Kinetic®) was included in the solution at a volume of 0.01% (v/v).
Lima bean plants (variety Sieva) were grown 2 plants to a pot and selected for treatment at the 1st true leaf stage. Test solutions were sprayed onto the foliage by an automated electrostatic plant sprayer equipped with an atomizing spray nozzle. The plants were dried in the sprayer fume hood and then removed from the sprayer. Each pot was placed into perforated plastic bags with a zip closure. About 10 to 11 armyworm larvae were placed into the bag and the bags zipped closed. Test plants were maintained in a growth room at about 250C and about 20-40% relative humidity for 4 days, avoiding direct exposure to fluorescent light (24 hour photoperiod) to prevent trapping of heat inside the bags. Mortality and reduced feeding were assessed 4 days after treatment, compared to untreated control plants.

Assay [9] concerns Diamond back moth (Plutella xylostella). As to the kind of experiment: Diamond back moth test, dipped cabbage leaves. The note with it: 72 hours after treatment, 3rd instar larvae, read-out: mortality in comparison with untreated controls. The procedure:
B.10 Diamond Back Moth (Plutella xylostella)
The active compound is dissolved at the desired concentration in a mixture of 1:1 (vol:vol) distilled water:aceteone. Surfactant (Alkamuls® EL 620) is added at a rate of 0.1% (vol/vol). The test solution is prepared at the day of use.
Leaves of cabbage were dipped in test solution and air-dried. Treated leaves were placed in petri dish eslined with moist filter paper and inoculated with ten 3rd instar larvae. Mortality was recorded 72 hours after treatment. Feeding damages were also recorded using a scale of 0-100%.

Assay [10] concerns Silverleaf whitefly (Bemisia argentifolii). As to the kind of experiment: Silverleaf whitefly test, sprayed cotton plants. The note with it: 72 h, 3 days after treatment, adults, read-out: mortality in comparison with untreated controls. An excerpt:
B.12 Silverleaf Whitefly (Bemisia argentifolii)
The active compounds are formulated in cyclohexanone as a 10,000 ppm solution supplied in tubes. The tubes are inserted into an automated electrostatic sprayer equipped with an atomizing nozzle and they serve as stock solutions for which lower dilutions are made in 50% acetone:50% water (v/v). A nonionic surfactant (Kinetic®) is included in the solution at a volume of 0.01% (v/v).
Cotton plants at the cotyledon stage (one plant per pot) are sprayed by an automated electrostatic plant sprayer equipped with an atomizing spray nozzle. The plants are dried in the sprayer fume hood and then removed from the sprayer. Each pot is placed into a plastic cup and about 10 to 12 whitefly adults (approximately 3-5 days old) are introduced. The insects are collected using an aspirator and a nontoxic Tygon® tubing connected to a barrier pipette tip. The tip, containing the collected insects, is then gently inserted into the soil containing the treated plant, allowing insects to crawl out of the tip to reach the foliage for feeding. Cups are covered with a reusable screened lid. […] Mortality is assessed 3 days after treatment, compared to untreated control plants.

Assay [11] deals with Cotton aphid (Aphis gossypih). Kind of assay: Cotton aphid test, sprayed potted plants. The note with it: after 72 hours, read-out: mortality in comparison with untreated controls. How it is done:
B.11 Cotton Aphid (Aphis gossypih)
as §1
Potted cowpea plants were colonized with approximately 50-100 aphids of various stages by manually transferring a leaf tissue cut from infested plant 24 hours before application. Plants were sprayed after the pest population has been recorded. Treated plants are maintained on light carts at about 28° C. Percent mortality was assessed after 72 hours.

Assay [12] has as its system Rice brown plant hopper (Nilaparvata lugens). As to the kind of experiment: Rice brown plant hopper test, sprayed rice seedlings. Conditions: after 72 hours, read-out: mortality in comparison with untreated controls. How it is done:
B.9 Rice Brown Plant Hopper (Nilaparvata lugens)
Rice seedlings are cleaned and washed 24 hours before spraying. The active compounds is formulated in 50:50 acetone:water (vol:vol) and 0.1% vol/vol surfactant (EL 620) was added. Potted rice seedlings are sprayed with 5 ml test solution, air dried, placed in cages and inoculated with 10 adults. Treated rice plants are kept at about 28-29° C. and relative humidity of about 50-60%. Percent mortality is recorded after 72 hours.

Assay [13] relates to Rice green leafhopper (Nephotettix virescens). As to the kind of experiment: Rice green leafhopper test, sprayed rice seedlings. Conditions: after 72 hours, read-out: mortality in comparison with untreated controls. How it is done: B.7 Rice Green Leafhopper (Nephotettix virescens)
Rice seedlings are cleaned and washed 24 hours before spraying. The active compounds are formulated in 50:50 acetone:water (vol:vol), and 0.1% vol/vol surfactant (EL 620) is added. Potted rice seedlings are sprayed with 5 ml test solution, air dried, placed in cages and inoculated with 10 adults. Treated rice plants are kept at about 28-29° C. and relative humidity of about 50-60%. Percent mortality is recorded after 72 hours.

On to `O=C(C[N+](=O)[O-])/N=c1\ccccn1Cc1ccc(Cl)nc1` [Compound E1.4], for which the mortality (as a rule, the share of the test organisms that died) at 500 ppm is no less than 75% in assay [1]; greater than 75% in assay [5]; no less than 75% in [6]; no less than 75% in assay [8]; greater than 75% in assay [9]; no less than 75% in assay [10]. Besides, the mortality at 500 ppm in assay [11] is greater than 75%; in [12], no less than 75%; in [13] it was no less than 75%. The mortality at 2500 ppm in assay [2], in [3], in [4] and in assay [7] was no less than 75% throughout.
`CC(C)/C=C(/C(=O)/N=c1\ccccn1Cc1ccc(Cl)nc1)[N+](=O)[O-]` [Compound E3.1]: the mortality at 500 ppm in [1] was no less than 75%; in assay [6] it was no less than 75%; in assay [10] it was no less than 75%; in [11] it was greater than 75%; in assay [13], no less than 75%. Also, the mortality at 2500 ppm in assay [2], in [3] and in [4] was no less than 75% in each case.
Regarding `O=C(/N=c1\ccccn1Cc1ccc(Cl)nc1)C1([N+](=O)[O-])CC1c1ccccc1` (stereo not drawn) [Compound E2.3], the mortality at 500 ppm in assay [1] is no less than 75%. Further, the mortality at 2500 ppm in assay [2] and in assay [4] was no less than 75% each time.
